# Laboratory results reported in the supplement of paper PMC9763283.
# What was measured:
# Experiment in all cases: area under growth-rate inhibition curve (AUC GRI) (dimensionless (GR-based AUC)); higher = less growth inhibition
# Details in all cases: exposure time: 72 h; concentrations: 0.1, 1, 10 uM
# BT474-LTR = system: BT474-LTR
# Summary of the method: (§1)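 Nuclear counts from Hoechst 33342- or DAPI-stained images were used to estimate the area under the growth-rate inhibition curve, with growth corrected by reference to untreated and DMSO-treated plates and starting plates. The six breast cancer cell line models, comprising two triple-negative lines and parental and drug-combination-resistant HER2+ lines, were treated with compound at 0.1, 1 or 10 µM for 72 h. Data came from 2 biological replicates, using Day 0 and Day 3 plates.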
# SKBR3-P = system: SKBR3-P
# Summary of the method: as §1
# MDA-MB-468 = system: MDA-MB-468
# Summary of the method: as §1
# MDA-MB-231 = system: MDA-MB-231
# Summary of the method: as §1
# SKBR3-LTR = system: SKBR3-LTR
# Summary of the method: as §1
# BT474-P = system: BT474-P
# Summary of the method: as §1
Compound,area under growth-rate inhibition curve (BT474-LTR),area under growth-rate inhibition curve (SKBR3-P),area under growth-rate inhibition curve (MDA-MB-468),area under growth-rate inhibition curve (MDA-MB-231),area under growth-rate inhibition curve (SKBR3-LTR),area under growth-rate inhibition curve (BT474-P)
Cc1nc2n(c(=O)c1CCN1CCC(c3noc4cc(F)ccc34)CC1)CCCC2O (configuration not stated) [Paliperidone],1.02,1.02,1.05,1.05,1.06,0.98
CC(=O)OC1CC2CCC3C(CCC4(C)C3CC([N+]3(C)CCCCC3)C4OC(C)=O)C2(C)CC1[N+]1(C)CCCCC1.[Br-].[Br-] (configuration not stated) [Pancuronium dibromide],1.06,0.989,1.01,1,0.978,1.01
Fc1ccc([C@@H]2CCNC[C@H]2COc2ccc3c(c2)OCO3)cc1.[Cl-].[H+] [Paroxetine HCl],0.927,0.955,0.912,0.965,0.927,0.931
NCCCCC1NC(=O)C(Cc2c[nH]c3ccccc23)NC(=O)C(c2ccccc2)NC(=O)C2CC(OC(=O)NCCN)CN2C(=O)C(Cc2ccccc2)NC(=O)C(Cc2ccc(OCc3ccccc3)cc2)NC1=O (configuration not stated) [Pasireotide],1.04,1.03,1.03,1.03,1.05,1.02
Cc1cccn2c(=O)c(-c3nnn[n-]3)cnc12.[K+] [Pemirolast Potassium],1.05,1.03,1.04,1.05,1.05,1.04
CC(=O)CCCCn1c(=O)c2c(ncn2C)n(C)c1=O [Pentoxifylline],1.03,1.02,1.04,1.04,1.05,1
N#Cc1ccccc1-c1cc(-c2ccccn2)cn(-c2ccccc2)c1=O [Perampanel],1.05,1.03,1.02,1.03,1.05,1.01
CCCN1C[C@H](CSC)C[C@@H]2c3cccc4[nH]cc(c34)C[C@H]21.CS(=O)(=O)O [Pergolide mesylate],1.06,0.978,1.02,1.02,1.02,1.02
OCCN1CCN(CCCN2c3ccccc3Sc3ccc(Cl)cc32)CC1 [Perphenazine],1.03,1.01,1.03,1.04,1.04,0.983
CC(COc1ccccc1)N(CCCl)Cc1ccccc1.[Cl-].[H+] (configuration not stated) [Phenoxybenzamine HCl],0.978,1.01,1,0.984,1.01,0.997
CS(=O)(=O)O.Cc1ccc(N(CC2=NCCN2)c2cccc(O)c2)cc1 [Phentolamine Mesylate],1.05,0.983,0.964,1.01,1.04,0.997
CNC[C@H](O)c1cccc(O)c1.Cl [Phenylephrine HCl],1.09,0.985,1.03,0.996,1.02,1.01
CC(C)COc1ccc(CNC(=O)N(Cc2ccc(F)cc2)C2CCN(C)CC2)cc1 [Pimavanserin],0.936,0.856,0.887,0.867,0.876,0.873
O=c1[nH]c2ccccc2n1C1CCN(CCCC(c2ccc(F)cc2)c2ccc(F)cc2)CC1 [Pimozide],0.991,0.972,0.959,0.991,1.01,0.974
CCC/N=C1\S/C(=C\c2ccc(OC[C@H](O)CO)c(Cl)c2)C(=O)N1c1ccccc1C [Ponesimod],1.04,0.989,1.04,1.01,1.02,0.996
CCCN[C@H]1CCc2nc(N)sc2C1 [Pramipexole],1.1,1.01,1.05,1.03,1.08,1.07
CC(=O)Oc1cc2c(s1)CCN(C(C(=O)C1CC1)c1ccccc1F)C2 (configuration not stated) [Prasugrel],1.13,1.02,1.04,1.03,1.03,1.05
CC(=O)[C@H]1CC[C@H]2[C@@H]3CC=C4C[C@@H](O)CC[C@]4(C)[C@H]3CC[C@]12C [Pregnenolone],1.09,0.999,1.02,1.03,1.05,1.02
CCC1(c2ccccc2)C(=O)NCNC1=O [Primidone],1.02,1.03,1.03,1.04,1.06,0.982
CC(C)NCC(O)COc1cccc2ccccc12.[Cl-].[H+] (configuration not stated) [Propranolol HCl],1.1,1.01,1.03,1.04,1.06,1.11
COCCCN1CCC(NC(=O)c2cc(Cl)c(N)c3c2OCC3)CC1 [Prucalopride],1.07,1.01,1.04,1.05,1.06,1.02
CN(C)C(=O)Oc1ccc[n+](C)c1.[Br-] [Pyridostigmine Bromide],1.07,0.997,1.03,1.05,1.04,1.04
O=C(O)C=CC(=O)O.OCCOCCN1CCN(C2=Nc3ccccc3Sc3ccccc32)CC1.OCCOCCN1CCN(C2=Nc3ccccc3Sc3ccccc32)CC1 [Quetiapine Fumarate],1.07,1.04,1.02,1.02,1.07,1.03
CC(=O)SCC(Cc1ccccc1)C(=O)NCC(=O)OCc1ccccc1 (configuration not stated) [Racecadotril],1.07,1.01,1.02,1.02,1.08,1.04
O=C(c1ccc(OCCN2CCCCC2)cc1)c1c(-c2ccc(O)cc2)sc2cc(O)ccc12.[Cl-].[H+] [Raloxifene HCl],0.931,0.996,0.931,0.957,0.996,0.82
CCC(=O)NCC[C@@H]1CCc2ccc3c(c21)CCO3 [Ramelteon],1.1,1.03,1.05,1.03,1.06,1.05

Compound,area under growth-rate inhibition curve (BT474-LTR),area under growth-rate inhibition curve (SKBR3-P),area under growth-rate inhibition curve (MDA-MB-468),area under growth-rate inhibition curve (MDA-MB-231),area under growth-rate inhibition curve (SKBR3-LTR),area under growth-rate inhibition curve (BT474-P)
CN/C(=C\[N+](=O)[O-])NCCSCc1ccc(CN(C)C)o1 [Ranitidine],1.1,1.03,1.04,1.01,1.03,1.07
c1nc2nc(Nc3ccc(N4CCOCC4)cc3)nc(NC3CCCCC3)c2[nH]1 [Reversine],0.65,0.662,0.643,0.689,0.677,0.648
Cc1c(C(=O)NN2CCCCC2)nn(-c2ccc(Cl)cc2Cl)c1-c1ccc(Cl)cc1 [Rimonabant],1.07,0.953,0.987,1,1.04,0.979
CC(NCCc1ccc(O)cc1)C(O)c1ccc(O)cc1.[Cl-].[H+] (configuration not stated) [Ritodrine HCl],1.1,1.02,1.01,0.975,1.11,1.07
CCN(C)C(=O)Oc1cccc(C(C)N(C)C)c1.O=C(O)C(O)C(O)C(=O)O (configuration not stated) [Rivastigmine Tartrate],1.07,1.02,1.04,1.03,1.06,1.06
C=CC[N+]1(C2CC3C4CCC5CC(O)C(N6CCOCC6)CC5(C)C4CCC3(C)C2OC(C)=O)CCCC1.[Br-] (configuration not stated) [Rocuronium Bromide],1.1,1.03,1.03,1.02,1.05,1.07
O=C(Nc1c(Cl)cncc1Cl)c1ccc(OC(F)F)c(OCC2CC2)c1 [Roflumilast],1.05,1.01,1.04,0.966,1.07,1.03
CCCN(CCC)CCc1cccc2c1CC(=O)N2 [Ropinirole],1.05,1.02,1.06,1.03,1.05,0.994
CCCN(CCc1cccs1)[C@H]1CCc2c(O)cccc2C1 [Rotigotine],1.08,0.984,0.992,1.03,1.08,1.05
COc1cc2c(cc1OC)C1Cc3ccc(OC)c(OC)c3CN1CC2 (configuration not stated) [Rotundine],1.11,0.992,1.02,0.997,1.04,1.03
CC(=O)OCC(=O)NCCCOc1cccc(CN2CCCCC2)c1.[Cl-].[H+] [Roxatidine Acetate HCl],1.07,0.991,1.02,1.03,1.04,1.04
Cc1cncc(CN2CCC(=C3c4ccc(Cl)cc4CCc4cccnc43)CC2)c1.O=C(O)/C=C/C(=O)O [Rupatadine Fumarate],1.05,0.966,0.972,1.05,1.03,0.974
Cc1nn(-c2ccccc2)c(C)c1C=NN1CCN(Cc2ccccc2)CC1 [SANT-1],1.08,1.04,1.02,0.992,1.05,0.98
O=C(O)c1ccc2ccccc2c1O.OCc1cc(C(O)CNCCCCCCOCCCCc2ccccc2)ccc1O (configuration not stated) [Salmeterol Xinafoate],0.877,0.95,0.875,0.832,0.993,0.905
CN1C2CC(O)CC1C1OC12 (configuration not stated) [Scopine],1.08,1.03,1.05,1.07,1.05,1.05
Br.CN1C2CC(OC(=O)C(CO)c3ccccc3)CC1C1OC12 (configuration not stated) [Scopolamine HBr],1.08,1.01,1.04,1.03,1.09,1.05
CN[C@@H]1CC[C@@H](c2ccc(Cl)c(Cl)c2)c2ccccc21.[Cl-].[H+] [Sertraline HCl],0.972,0.963,0.907,0.918,0.981,0.935
C[C@H](Cc1cc2c(c(C(N)=O)c1)N(CCCO)CC2)NCCOc1ccccc1OCC(F)(F)F [Silodosin],1.1,1.03,1.05,1.04,1.1,1.06
Cc1cc2c(cc1CC(=O)c1sccc1S(=O)(=O)[N-]c1onc(C)c1Cl)OCO2.[Na+] [Sitaxentan sodium],1.08,1.04,1.04,1.04,1.07,1.06
CCOc1ccc(Cc2cc([C@@H]3O[C@H](SC)[C@@H](O)[C@H](O)[C@H]3O)ccc2Cl)cc1 [Sotagliflozin (LX4211)],1.06,1.02,0.996,1.01,1.1,1.02
CC(C)NCC(O)c1ccc(NS(C)(=O)=O)cc1.[Cl-].[H+] (configuration not stated) [Sotalol],1.09,1.03,1.05,1.03,1.07,1.05
CNS(=O)(=O)Cc1ccc2[nH]cc(CCN(C)C)c2c1.O=C(O)CCC(=O)O [Sumatriptan Succinate],1.1,1.04,1.03,1.02,1.06,1.05
Cc1ccc(-n2nccn2)c(C(=O)N2CCN(c3nc4cc(Cl)ccc4o3)CCC2C)c1 (configuration not stated) [Suvorexant (MK-4305)],1.05,0.995,0.955,1.02,1.04,1.02
CNCC(O)c1ccc(O)cc1.Cl (configuration not stated) [Synephrine HCl],1.11,1.01,1.05,0.993,1.07,1.05
CNCC(O)c1ccc(O)cc1 (configuration not stated) [Synephrine],1.06,1.03,1.05,0.993,1.07,1.05
CC/C(=C(\c1ccccc1)c1ccc(OCCN(C)C)cc1)c1ccccc1.O=C(O)CC(O)(CC(=O)O)C(=O)O [Tamoxifen Citrate],0.896,0.938,0.952,0.958,0.982,0.851
